Molecules are shown by their SMILES. Several values for one entry are separate records, joined by “and”; a condition that tells them apart may be missing. Equal entries are not always repeated.

Results on two molecules are retold here after the Kinase Knowledgebase extract (Sharma et al. 2016).

In one experiment the target is PIK3CA (human) (UniProt P42336). Nature of the experiment: Inhibition of PIK3CA Kinase Activity.
In another experiment the target is PIK3CG (human) (UniProt P48736). Kind of experiment: Inhibition of PIK3CG Kinase Activity.
The target of a further experiment is PIK3CD (Human) (UniProt O00329). Nature of the experiment: Inhibition of PIK3CD Kinase Activity.
In another experiment the target is PIK3CB (Human) (UniProt P42338). Kind of experiment: Inhibition of PIK3CB Kinase Activity.
PIK3CB (Human), sequence (P42338 whole entry, looked up): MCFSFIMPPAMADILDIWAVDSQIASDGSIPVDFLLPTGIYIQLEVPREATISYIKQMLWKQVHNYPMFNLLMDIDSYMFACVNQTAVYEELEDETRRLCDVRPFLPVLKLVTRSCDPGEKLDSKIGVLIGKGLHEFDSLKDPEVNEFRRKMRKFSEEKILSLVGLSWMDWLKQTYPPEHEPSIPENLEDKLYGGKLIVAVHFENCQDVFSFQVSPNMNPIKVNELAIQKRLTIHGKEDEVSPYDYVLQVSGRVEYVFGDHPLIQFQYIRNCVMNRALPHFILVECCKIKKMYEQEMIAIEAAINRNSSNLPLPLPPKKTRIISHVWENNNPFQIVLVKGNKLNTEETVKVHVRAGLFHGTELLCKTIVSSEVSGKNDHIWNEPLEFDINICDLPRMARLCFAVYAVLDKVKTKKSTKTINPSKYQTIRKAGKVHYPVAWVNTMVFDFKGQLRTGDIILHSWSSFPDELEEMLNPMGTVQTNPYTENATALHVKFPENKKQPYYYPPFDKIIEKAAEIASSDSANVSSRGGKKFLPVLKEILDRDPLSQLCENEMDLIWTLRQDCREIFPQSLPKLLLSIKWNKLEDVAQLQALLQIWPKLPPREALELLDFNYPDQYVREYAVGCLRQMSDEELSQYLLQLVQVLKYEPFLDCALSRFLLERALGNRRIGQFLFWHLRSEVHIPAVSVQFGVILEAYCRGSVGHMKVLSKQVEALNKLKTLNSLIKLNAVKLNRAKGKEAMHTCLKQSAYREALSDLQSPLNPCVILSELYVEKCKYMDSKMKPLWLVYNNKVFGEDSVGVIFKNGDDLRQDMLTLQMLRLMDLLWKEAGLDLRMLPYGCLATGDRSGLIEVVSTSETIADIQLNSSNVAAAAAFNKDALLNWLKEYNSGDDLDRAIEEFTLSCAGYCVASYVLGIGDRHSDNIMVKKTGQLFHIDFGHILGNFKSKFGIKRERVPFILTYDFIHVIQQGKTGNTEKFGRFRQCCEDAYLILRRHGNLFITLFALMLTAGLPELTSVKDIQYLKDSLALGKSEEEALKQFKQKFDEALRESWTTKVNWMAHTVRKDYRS

PIK3CA (human), sequence (P42336 whole entry, looked up): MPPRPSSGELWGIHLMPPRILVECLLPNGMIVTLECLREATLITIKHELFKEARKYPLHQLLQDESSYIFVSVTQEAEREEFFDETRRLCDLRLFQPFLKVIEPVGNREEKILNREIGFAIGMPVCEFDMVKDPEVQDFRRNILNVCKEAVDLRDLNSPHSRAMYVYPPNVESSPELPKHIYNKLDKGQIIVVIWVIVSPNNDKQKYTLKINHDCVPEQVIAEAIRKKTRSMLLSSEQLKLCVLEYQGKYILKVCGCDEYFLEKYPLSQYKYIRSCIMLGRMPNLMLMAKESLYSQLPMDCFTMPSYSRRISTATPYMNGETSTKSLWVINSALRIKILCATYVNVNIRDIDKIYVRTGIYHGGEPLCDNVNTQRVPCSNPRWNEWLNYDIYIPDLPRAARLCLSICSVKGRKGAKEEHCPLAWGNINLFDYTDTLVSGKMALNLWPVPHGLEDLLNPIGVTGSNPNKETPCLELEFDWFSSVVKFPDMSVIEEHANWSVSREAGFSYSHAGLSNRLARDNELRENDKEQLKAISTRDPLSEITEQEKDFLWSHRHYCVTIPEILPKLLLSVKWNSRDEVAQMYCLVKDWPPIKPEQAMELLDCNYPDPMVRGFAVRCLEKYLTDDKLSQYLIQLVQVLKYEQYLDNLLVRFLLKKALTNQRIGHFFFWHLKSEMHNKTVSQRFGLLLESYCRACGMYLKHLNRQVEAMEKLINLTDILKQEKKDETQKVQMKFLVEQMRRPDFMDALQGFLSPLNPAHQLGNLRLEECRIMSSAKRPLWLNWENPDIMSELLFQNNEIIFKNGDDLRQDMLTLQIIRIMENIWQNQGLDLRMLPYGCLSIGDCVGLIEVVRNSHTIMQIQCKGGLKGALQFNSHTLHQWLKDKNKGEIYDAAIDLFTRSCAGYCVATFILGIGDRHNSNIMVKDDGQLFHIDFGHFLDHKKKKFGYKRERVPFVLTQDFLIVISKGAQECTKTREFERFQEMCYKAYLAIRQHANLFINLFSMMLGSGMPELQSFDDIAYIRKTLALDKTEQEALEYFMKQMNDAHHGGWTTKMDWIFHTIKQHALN
PIK3CG (human), sequence (P48736 whole entry, looked up): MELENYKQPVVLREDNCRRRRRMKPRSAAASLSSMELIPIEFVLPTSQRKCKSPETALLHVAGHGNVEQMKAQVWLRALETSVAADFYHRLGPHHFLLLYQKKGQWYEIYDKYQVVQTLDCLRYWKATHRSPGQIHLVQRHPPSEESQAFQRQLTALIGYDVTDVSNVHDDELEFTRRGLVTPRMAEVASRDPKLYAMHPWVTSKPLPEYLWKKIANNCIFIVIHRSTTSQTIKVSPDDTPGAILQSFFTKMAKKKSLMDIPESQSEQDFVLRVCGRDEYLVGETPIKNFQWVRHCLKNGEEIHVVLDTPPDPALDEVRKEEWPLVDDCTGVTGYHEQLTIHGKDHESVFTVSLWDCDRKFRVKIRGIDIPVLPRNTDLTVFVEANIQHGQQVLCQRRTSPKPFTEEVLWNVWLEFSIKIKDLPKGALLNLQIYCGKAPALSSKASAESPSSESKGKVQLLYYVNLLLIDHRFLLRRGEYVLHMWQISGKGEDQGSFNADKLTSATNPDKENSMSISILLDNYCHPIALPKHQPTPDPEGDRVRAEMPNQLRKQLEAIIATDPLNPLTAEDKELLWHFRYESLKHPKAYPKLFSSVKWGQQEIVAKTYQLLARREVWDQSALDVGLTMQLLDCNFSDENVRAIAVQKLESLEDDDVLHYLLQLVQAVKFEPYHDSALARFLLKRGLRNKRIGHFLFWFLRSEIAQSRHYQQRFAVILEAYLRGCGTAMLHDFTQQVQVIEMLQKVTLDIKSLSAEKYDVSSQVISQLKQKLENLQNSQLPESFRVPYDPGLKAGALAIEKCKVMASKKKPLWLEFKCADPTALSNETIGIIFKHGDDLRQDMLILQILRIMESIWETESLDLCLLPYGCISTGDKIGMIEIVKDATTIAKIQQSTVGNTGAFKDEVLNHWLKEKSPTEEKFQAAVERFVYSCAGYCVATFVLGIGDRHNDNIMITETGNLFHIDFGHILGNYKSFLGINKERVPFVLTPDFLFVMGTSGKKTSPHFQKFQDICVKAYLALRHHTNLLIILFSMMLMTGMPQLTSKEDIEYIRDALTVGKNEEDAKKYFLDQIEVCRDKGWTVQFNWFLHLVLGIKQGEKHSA
PIK3CD (Human), sequence (O00329 whole entry, looked up): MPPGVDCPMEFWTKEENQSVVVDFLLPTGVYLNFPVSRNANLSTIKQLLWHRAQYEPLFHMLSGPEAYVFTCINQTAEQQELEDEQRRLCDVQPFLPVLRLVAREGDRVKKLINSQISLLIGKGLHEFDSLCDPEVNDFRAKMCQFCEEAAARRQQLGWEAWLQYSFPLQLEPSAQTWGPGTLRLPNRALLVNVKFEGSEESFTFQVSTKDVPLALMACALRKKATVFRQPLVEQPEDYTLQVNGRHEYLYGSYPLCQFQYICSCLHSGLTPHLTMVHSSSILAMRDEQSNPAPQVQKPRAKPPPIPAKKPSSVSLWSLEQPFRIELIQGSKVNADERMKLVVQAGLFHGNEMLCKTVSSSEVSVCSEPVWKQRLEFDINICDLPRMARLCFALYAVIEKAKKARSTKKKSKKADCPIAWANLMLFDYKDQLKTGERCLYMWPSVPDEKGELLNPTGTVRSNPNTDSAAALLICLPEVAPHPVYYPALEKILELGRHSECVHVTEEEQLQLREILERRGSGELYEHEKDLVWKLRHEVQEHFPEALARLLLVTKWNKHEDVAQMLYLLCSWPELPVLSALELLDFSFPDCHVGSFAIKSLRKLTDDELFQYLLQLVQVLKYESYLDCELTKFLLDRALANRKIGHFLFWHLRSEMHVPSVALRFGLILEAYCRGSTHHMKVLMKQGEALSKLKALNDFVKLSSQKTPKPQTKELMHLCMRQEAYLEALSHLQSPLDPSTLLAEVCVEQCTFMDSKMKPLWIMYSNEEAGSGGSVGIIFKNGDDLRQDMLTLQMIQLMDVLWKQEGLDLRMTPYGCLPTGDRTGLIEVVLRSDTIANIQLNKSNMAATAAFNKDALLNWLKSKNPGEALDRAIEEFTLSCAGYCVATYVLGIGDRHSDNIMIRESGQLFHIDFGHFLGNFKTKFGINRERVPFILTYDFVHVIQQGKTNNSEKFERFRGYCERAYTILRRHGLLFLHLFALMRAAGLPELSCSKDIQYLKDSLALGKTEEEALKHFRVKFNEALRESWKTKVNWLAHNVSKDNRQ

Take `Cc1cc(C(C)Nc2ccccc2)c2nc(N3CCOCC3)cc(=O)n2c1` (stereo unspecified): the IC50 was 5000 nM and 784 nM at PIK3CA (human); 3500 nM and 3240 nM against PIK3CG (human).
Regarding `CC(=O)Nc1cccc(-c2nc(N3CCOCC3)c3oc4ncccc4c3n2)c1`, the IC50 against PIK3CD (Human) is 333 nM; against PIK3CA (human), 301 nM; on PIK3CG (human) it was 9070 nM; against PIK3CB (Human) it was 2650 nM.

As usually defined, the IC50 is the midpoint of a concentration-inhibition curve. A high value points to lower potency.
